The subject of one data set is whole chick DRGs. The data set can be described thus: DRG neurite extension bioactivity verification assay. Particulars: 20 ng/ml FK506 positive control; 72 hours culture. In kind it is cell-based. The procedure:
Fertilized chicken eggs (Merrills Poultry, ID, USA) were incubated at ˜39° C. under 100% relative humidity for 12 days. Dorsal root ganglions (DRG) were dissected from the embryos under a microscope. 24-well plates were coated with laminin (1 μg/ml), then 500 μL from each media sample was placed into 3 wells. DRGs were separated carefully from connective tissue for culturing and a single DRG was placed into each well. For comparison to known FK506 concentrations, DRGs were also grown in negative and positive control concentrations of FK506, 0 ng/ml and 20 ng/ml, respectively. Groups tested: 0 ng/ml FK506 (n=4), 20 ng/ml FK506 control (n=4), Day 4 collection of LD-Wrap (n=6), and Day 4 collection of HD-Wrap (n=8). amples were diluted in DMEM/F12+10% FBS and 1% Pen-Strep. HD-Wrap and LD-Wrap drug release test samples were diluted by a factor of 10 and 2, respectively. Drug release test samples average concentrations after dilution: Day 4 LD-Wrap—18.5 ng/ml FK506 and Day 4 HD-Wrap—23.1 ng/ml FK506. The plate was incubated for 72 hours at 37° C. and 5% CO2 to evaluate the released drug's bioactivity. […] Briefly, the area of the ganglion body (ADRG) and the total area of the DRG with the growing axons (Atot) were measured using ImageJ (ImageJ 1.31v, National Institutes of Health, Bethesda, USA). The average neurite length (lavg) was calculated by: lavg=(Atot/π)^1/2−(ADRG/π)^1/2. […]

The format of data set [1] is physicochemical. The procedure:
The inventors discovered that FK506, in particular, is subject to thermal degradation beginning at about 140° C. when incorporated into the preferred polymers within the preferred loading ranges as disclosed herein. While conventional PLLA and PLLA co-polymer hot-melt extrusion protocols call for temperatures exceeding 140° C., limiting the maximum temperature still allows for sufficient manufacturability while minimizing or preventing unwanted thermal degradation of the FK506.

SMILES strings stand for the structures.

Molecule `C=CC[C@@H]1/C=C(\C)C[C@H](C)C[C@H](OC)[C@H]2O[C@@](O)(C(=O)C(=O)N3CCCC[C@H]3C(=O)O[C@H](/C(C)=C/[C@@H]3CC[C@@H](O)[C@H](OC)C3)[C@H](C)[C@@H](O)CC1=O)[C@H](C)C[C@@H]2OC` [FK506] had an Average neurite extension in the data set on whole chick DRGs of 720±72.2 μm. Besides, the “temperature at which thermal degradation begins” value in data set [1] is “about 140 °C”.

Values taken from US20250120920A1, “DRUG-DELIVERING NERVE WRAP” (UNIVERSITY OF UTAH RESEARCH FOUNDATION, priority 2019, published 2025).
